Legend:
Type in all cases: cell-based
STAT3 = biological target: T1, STAT3 (Homo sapiens, UniProt P40763); test: STAT3 reporter gene assay (luciferase), LNCaP stable cell line (pSTAT3-TA-luc), IL-6 stimulation
T1 construct: plasmid pSTAT3-TA-luc), which contains a stably operating STAT3 promoter; endogenous in cells
Summary of the method: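 Cytotoxicity was run on a duplicate plate with CellTiter-Glo, while the other plate gave luciferase read-outs from lysed LNCaP pSTAT3-TA-luc reporter cells. Cells were treated with graded compound concentrations plus IL-6 (10 ng/mL final) for 24–48 h in 3% DCC-FBS medium. Unstimulated and stimulated wells served as negative and positive controls.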

LNCaP = test: Cell growth inhibition assay, prostate cancer cell line LNCaP (medium with 10 ng/mL IL-6); settings: Homo sapiens, medium supplemented with 10 ng/mL of IL-6, 10,000 cells/well
DU-145 = test: Cell growth inhibition assay, prostate cancer cell line DU-145; settings: Homo sapiens, DU-145 prostate cancer cell line
Summary of the method: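 Readout was CellTiter-Glo luminescence after 72–96 h of compound exposure at 37 °C, 5% CO2. Plating density was 3,000 cells/well for DU-145 and HCT116 and 5,000 cells/well for SW626. Controls were 0.1% DMSO wells and medium-only wells.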

HEL92.1.7 = test: Cell growth inhibition assay, blood cancer cell line HEL92.1.7; settings: Homo sapiens, HEL 92.1.7, HEL92.1.7 blood cancer cell line
Description: The inhibitory effects of the compounds of the present invention against the growth of cancer cells were evaluated as shown below. The cancer cell lines including stomach cancer cell line (AGS), breast cancer cell lines (MDA-MB-231, MDA-MB-468, and BT-549), prostate cancer cell lines (LNCaP and DU-145), colon cancer cell line (HCT116), ovarian cancer cell line (SW626), liver cancer cell line (Hep3B), kidney cancer cell line (ACHN), lung cancer cell line (NCI-H23) and blood cancer cell lines (HEL92.1.7 and U266) were cultured under the protocol provided by each supplier. A medium supplemented with 10 ng/mL of IL-6 was used for LNCaP, a prostate cancer cell line, when treated with a drug. Each type of cells to be used in experiments were sub-cultured in a 96-well plate by counting the exact number of cells using Tali™ Image-based Cytometer (Life Technologies). In a 96-well plate, AGS, HCT116, and DU-145 were employed with 3,000 cells/well; NCI-H23, SW626, Hep3B, ACHN, BT-549, MDA-MB-231, HEL92.1.7, and U266 were employed with 5,000 cells/well; and LNCaP and MDA-MB-468 were employed with 10,000 cells/well. The cells were treated with the compounds listed in Examples which were diluted in various concentrations. Upon completion of the compounds treatment, AGS, HCT116, SW626, DU145, NCI-H23, Hep3B, ACHN, BT-549, LNCaP, HEL92.1.7, and U266 cells were cultured at 37° C. under 5% CO2 for from 72 to 96 hours, and MDA-MB-231 and MDA-MB-468 cells were cultured at 37° C. in air for from 72 to 96 hours. Subsequently, the cells were observed under microscope and drug precipitation and particular findings were investigated and recorded. And then, the 96-well plate was placed at room temperature for 30 minutes, added with 20 μL/well of CellTiter-Glo solution (Cat No. G7573, Promega) and shaken for 10 minutes, followed by being subjected to the measurement using PHERAstar™ microplate reader (BMG LABTECH) according to the supplier's general luminometer protocol. Wells where only culture liquid added without cell plating were used as a negative control, whereas wells where culture liquid containing 0.1% DMSO instead of the compounds listed in Examples were used as a positive control.

MDA-MB-231 = test: Cell growth inhibition assay, breast cancer cell line MDA-MB-231; settings: Homo sapiens; MDA-MB-231 breast cancer cell line, 5,000 cells/well

T1 sequence (P40763 whole entry): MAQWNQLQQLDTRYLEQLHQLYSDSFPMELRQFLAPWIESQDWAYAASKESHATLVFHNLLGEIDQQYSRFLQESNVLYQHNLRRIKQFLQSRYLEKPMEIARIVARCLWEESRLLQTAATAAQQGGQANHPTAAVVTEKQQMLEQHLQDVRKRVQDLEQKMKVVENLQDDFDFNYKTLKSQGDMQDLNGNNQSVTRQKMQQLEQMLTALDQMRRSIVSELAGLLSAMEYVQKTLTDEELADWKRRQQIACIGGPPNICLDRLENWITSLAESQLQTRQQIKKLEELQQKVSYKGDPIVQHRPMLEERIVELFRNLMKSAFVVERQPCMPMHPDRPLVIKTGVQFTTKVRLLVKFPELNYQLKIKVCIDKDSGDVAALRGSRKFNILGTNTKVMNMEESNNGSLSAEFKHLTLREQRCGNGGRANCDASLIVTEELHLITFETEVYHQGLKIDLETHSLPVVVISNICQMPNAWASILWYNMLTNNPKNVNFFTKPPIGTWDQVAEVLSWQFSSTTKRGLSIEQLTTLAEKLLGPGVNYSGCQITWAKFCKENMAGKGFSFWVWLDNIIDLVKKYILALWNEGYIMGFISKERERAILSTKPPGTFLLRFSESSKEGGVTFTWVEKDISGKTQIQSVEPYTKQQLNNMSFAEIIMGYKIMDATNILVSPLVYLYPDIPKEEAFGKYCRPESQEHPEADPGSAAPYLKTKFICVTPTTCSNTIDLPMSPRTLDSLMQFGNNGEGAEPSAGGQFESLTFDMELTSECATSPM

Structure (SMILES)	IC50 (STAT3) [µM]	IC50 (LNCaP) [µM]	IC50 (DU-145) [µM]	IC50 (HEL92.1.7) [µM]	IC50 (MDA-MB-231) [µM]
COc1cc(OC(F)(F)F)cc(-c2cc(Cl)cc(NC(=O)c3cc4cc(NS(=O)(=O)C5CCOC5)ccc4s3)c2)c1 (centres unmarked) [Example 328, N-(5-chloro-3′-methoxy-5′-(trifluoromethoxy)-[1,1′-biphenyl]-3-yl)-5-((tetrahydrofuran)-3-sulfonamido)benzo[b]thiophene-2-carboxamide]	0.34	0.34	0.39	0.5	–
CC(C)Oc1cc(OC(F)(F)F)cc(C(C)(C)c2cc(Cl)cc(N(CCN3CCOCC3)C(=O)c3cc4cc(N(CCN5CCOCC5)S(C)(=O)=O)c(F)cc4s3)c2)c1 [Example 218, N-(3-chloro-5-(2-(3-isopropoxy-5-(trifluoromethoxy)phenyl)propan-2-yl)phenyl)-6-fluoro-N-(2-morpholinoethyl)-5-(N-(2-morpholinoethyl)methylsulfonamido)benzo[b]thiophene-2-carboxamide]	> 10	7.7	> 1.1	> 1.1	–
CSc1ccc(C(C)(C)c2cc(Cl)cc(NC(=O)c3cc4cc(NS(C)(=O)=O)ccc4s3)c2)cc1 [Example 157, N-(3-chloro-5-(2-(4-(methylthio)phenyl)propan-2-yl)phenyl)-5-(methylsulfonamido)benzo[b]thiophene-2-carboxamide]	0.063	0.079	0.06	0.23	–
CC(C)(c1cc[nH]c1)c1cc(Cl)cc(NC(=O)c2cc3cc(NS(C)(=O)=O)ccc3s2)c1 [Example 167, N-(3-(2-(1H-pyrrol-3-yl)propan-2-yl)-5-chlorophenyl)-5-(methylsulfonamido)benzo[b]thiophene-2-carboxamide]	2.6	2.3	> 1.1	> 1.1	–
CC(C)Oc1cc(OC(F)(F)F)cc(C(C)(C)c2cc(Cl)cc(NC(=O)c3cc4cc(NS(=O)(=O)C5CCS(=O)(=O)CC5)ccc4s3)c2)c1 [Example 205, N-(3-chloro-5-(2-(3-isopropoxy-5-(trifluoromethoxy)phenyl)propan-2-yl)phenyl)-5-((1,1-dioxidotetrahydro-2H-thiopyran)-4-sulfonamido)benzo[b]thiophene-2-carboxamide]	0.3	0.31	0.063	0.58	–
CC(C)Oc1cc(OC(F)(F)F)cc(C(C)(C)c2cc(Cl)cc(NC(=O)c3cc4c(N5CCOCC5)c(NS(C)(=O)=O)ccc4s3)c2)c1 [Example 66, N-(3-chloro-5-(2-(3-isopropoxy-5-(trifluoromethoxy)phenyl)propan-2-yl)phenyl)-5-(methylsulfonamido)-4-morpholinobenzo[b]thiophene-2-carboxamide]	> 10	> 1.1	> 1.1	> 1.1	–
O=C(Nc1cc(Cl)cc(-c2ccc(F)cc2F)c1)c1cc2cc(NS(=O)(=O)C3CCOC3)ccc2s1 (centres unmarked) [Example 327, N-(5-chloro-2′,4′-difluoro-[1,1′-biphenyl]-3-yl)-5-((tetrahydrofuran)-3-sulfonamido)benzo[b]thiophene-2-carboxamide]	0.041	0.088	0.034	0.082	–
COc1cc(OC(F)(F)F)cc(-c2cc(Cl)cc(NC(=O)c3cc4cc(NS(C)(=O)=O)ccc4s3)c2)c1 [Example 324, N-(5-chloro-3′-methoxy-5′-(trifluoromethoxy)-[1,1′-biphenyl]-3-yl)-5-(methylsulfonamido)benzo[b]thiophene-2-carboxamide]	0.53	0.48	0.4	0.83	–
CS(=O)(=O)Nc1ccc2sc(C(=O)Nc3cc(Br)cc(C4(c5ccc(F)cc5F)CC4)c3)cc2c1 [Example 426, N-(3-bromo-5-(1-(2,4-difluorophenyl)cyclopropyl)phenyl)-5-(methylsulfonamido)benzo[b]thiophene-2-carboxamide]	0.082	0.3	0.13	–	0.074

Now those with a lower IC50 (STAT3), led by results:

IC50 (STAT3) [µM]	IC50 (LNCaP) [µM]	IC50 (DU-145) [µM]	IC50 (HEL92.1.7) [µM]	IC50 (MDA-MB-231) [µM]	Structure (SMILES)
0.002	0.006	0.002	0.007	–	CC(C)Oc1cc(OC(F)(F)F)cc(C(C)(C)c2cc(Cl)cc(NC(=O)c3cc4cc(N(C)S(C)(=O)=O)c(F)cc4s3)c2)c1 [Example 215, N-(3-chloro-5-(2-(3-isopropoxy-5-(trifluoromethoxy)phenyl)propan-2-yl)phenyl)-6-fluoro-5-(N-methylmethylsulfonamido)benzo[b]thiophene-2-carboxamide]
0.029	0.064	0.018	0.053	–	CC(C)Oc1cc(OC(F)(F)F)cc(C(C)(C)c2cc(Cl)cc(NC(=O)c3cc4cc(NS(=O)(=O)c5cnn(C)c5)ccc4s3)c2)c1 [Example 201, N-(3-chloro-5-(2-(3-isopropoxy-5-(trifluoromethoxy)phenyl)propan-2-yl)phenyl)-5-((1-methyl-1H-pyrazole)-4-sulfonamido)benzo[b]thiophene-2-carboxamide]
0.023	0.025	0.012	0.1	–	CC(C)(c1cc(Cl)cc(NC(=O)c2cc3cc(NS(C)(=O)=O)ccc3s2)c1)c1cc(OCC(F)F)cc(OC(F)(F)F)c1 [Example 83, N-(3-chloro-5-(2-(3-(2,2-difluoroethoxy)-5-(trifluoromethoxy)phenyl)propan-2-yl)phenyl)-5-(methylsulfonamido)benzo[b]thiophene-2-carboxamide]
0.012	0.006	0.006	0.014	–	CC(C)Oc1cc(OC(F)(F)F)cc(C2(c3cc(Cl)cc(NC(=O)c4cc5cc(N(C)S(C)(=O)=O)c(F)cc5s4)c3)CC2)c1 [Example 430, N-(3-chloro-5-(1-(3-isopropoxy-5-(trifluoromethoxy)phenyl)cyclopropyl)phenyl)-6-fluoro-5-(N-methylmethylsulfonamido)benzo[b]thiophene-2-carboxamide]
0.028	0.021	0.011	0.049	–	CS(=O)(=O)Nc1cc2cc(C(=O)Nc3cc(Cl)cc(-c4ccc(F)cc4F)c3)sc2cc1F [Example 322, N-(5-chloro-2′,4′-difluoro-[1,1′-biphenyl]-3-yl)-6-fluoro-5-(methylsulfonamido)benzo[b]thiophene-2-carboxamide]
0.007	0.05	0.014	0.066	–	CC(C)Oc1cc(OC(F)(F)F)cc(C(C)(C)c2cc(Cl)cc(NC(=O)c3cc4cc(N5CCCCS5(=O)=O)ccc4s3)c2)c1 [Example 211, N-(3-chloro-5-(2-(3-isopropoxy-5-(trifluoromethoxy)phenyl)propan-2-yl)phenyl)-5-(1,1-dioxido-1,2-thiazinan-2-yl)benzo[b]thiophene-2-carboxamide]
0.01	0.008	0.004	0.009	–	CN(c1cc2cc(C(=O)Nc3cc(Cl)cc(-c4ccc(F)cc4F)c3)sc2cc1F)S(C)(=O)=O [Example 329, N-(5-chloro-2′,4′-difluoro-[1,1′-biphenyl]-3-yl)-6-fluoro-5-(N-methylmethylsulfonamido)benzo[b]thiophene-2-carboxamide]
0.01	0.075	0.022	0.081	–	CC(C)Oc1cc(OC(F)(F)F)cc(C(C)(C)c2cc(Cl)cc(NC(=O)c3cc4cc(N5CCCS5(=O)=O)ccc4s3)c2)c1 [Example 212, N-(3-chloro-5-(2-(3-isopropoxy-5-(trifluoromethoxy)phenyl)propan-2-yl)phenyl)-5-(1,1-dioxidoisothiazolidin-2-yl)benzo[b]thiophene-2-carboxamide]

From patent publication US10562912B2 (C&C Research Laboratories, priority 2013, dated 2020)
